According to the supplement of paper PMC10307832:

Compound: CN(C)CC1=CC(=CC=C1)N=C(C2=CC=CC=C2)C3=C(NC4=C3C=CC(=C4)C(=O)N(C)C)O
Test: relative viability (nuclei count vs DMSO), 5 days (fraction); higher = more cells survive
Outline: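 A plate was accepted only when its control CV was below 25% and the cells had doubled at least once. Viability is defined from nuclear counts as treated wells divided by vehicle wells, with the median taken across plates. That median covers lung cancer cell lines grown in 1536-well plates, dosed by pinning at five √10-spaced library-drug concentrations, and counted in MetaXpress from 4× Hoechst images after 5 days.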

Cell Line	relative viability (0.08 µM)	relative viability (0.253 µM)	relative viability (0.8 µM)	relative viability (2.53 µM)	relative viability (8 µM)
NCI-H661	0.975	1.05	1.01	0.958	0.941
NCI-H727	0.921	0.962	0.891	1.02	0.821
NCI-H838	1	0.976	0.977	0.902	0.785
NCI-H1299	0.998	1.03	1.01	1.01	0.977
NCI-H1355	1.03	0.992	0.836	0.993	0.979
NCI-H1395	0.87	0.976	1.04	0.774	0.875
NCI-H1437	1.05	0.977	1.04	1.02	1.05
NCI-H1648	0.851	0.657	0.749	0.884	0.915
NCI-H1650	0.967	0.961	0.982	1.04	0.909
NCI-H1651	1.01	0.954	1.04	0.897	0.978
NCI-H1666	1.07	0.994	0.959	1.11	1.12
NCI-H1703	0.989	0.847	1.11	0.63	0.349
NCI-H1734	1.1	1.05	1.04	0.962	0.824
NCI-H1755	0.981	0.967	0.971	0.983	0.987
NCI-H1792	0.997	1.05	0.881	0.949	0.8
NCI-H1793	1.01	1.07	0.773	1.05	0.839
NCI-H1915	1.01	0.986	1.07	1.01	0.992
NCI-H1944	0.956	1.03	0.892	0.903	0.823
NCI-H1975	0.955	0.915	0.85	0.926	0.789
NCI-H1993	0.979	0.98	0.717	0.944	1.07

Cell Line	relative viability (0.08 µM)	relative viability (0.253 µM)	relative viability (0.8 µM)	relative viability (2.53 µM)	relative viability (8 µM)
NCI-H2009	1.03	0.987	1.1	0.973	0.97
NCI-H2023	0.966	0.905	1.01	0.789	0.79
NCI-H2085	1.02	1.02	0.98	1.02	1.02
NCI-H2087	0.915	1.07	1.04	0.978	0.956
NCI-H2126	1.01	0.988	0.941	1.03	0.903
NCI-H2170	0.952	0.981	0.812	1.02	0.915
NCI-H2228	1.04	1.06	0.874	0.879	0.789
NCI-H2342	1.02	1.04	0.904	1.15	1.02
NCI-H2347	0.996	1.08	0.971	1	1.09
NCI-H2405	1.02	1.01	1.01	0.902	0.979
NCI-H3122	0.948	0.94	1.08	1.01	1.02
PC-3 [JPC-3]	1.04	1.05	0.866	1.06	1.09
PC-14	1.12	0.951	1.08	0.988	1.02
RERF-LC-KJ	1.08	0.992	0.907	0.982	0.996
SK-LU-1	1.04	1.02	0.996	0.993	0.866
SK-MES-1	1	0.993	0.934	0.938	0.914
SW 900	0.997	0.886	0.983	0.934	0.937
SW 1573	0.983	1.08	0.978	0.935	0.853
UMC-11	1.05	0.934	0.98	0.924	0.957
